Data from patent publication US9247747B2, “Fungicidal substituted 1-{2-[2-halo-4-(4-halogen-phenoxy)-phenyl]-2-alkoxy-2-alkynyl/alkenyl-ethyl}-1H-[1,2,4]triazole compounds” (BASF SE, priority 2011, dated 2016).

Legend:
[1] = tested on: Septoria tritici; test: G1. Preventative control of leaf blotch on wheat caused by Septoria tritici (Septtr P1), green house; format: in vivo; conditions: 300 pm active substance, % diseased leaf area, untreated control 90%
Description: The spray solutions were prepared in several steps:
The stock solution were prepared: a mixture of acetone and/or dimethylsulfoxide and the wetting agent/emulsifier Wettol, which is based on ethoxylated alkylphenoles, in a relation (volume) solvent-emulsifier of 99 to 1 was added to 25 mg of the compound to give a total of 5 ml. Water was then added to total volume of 100 ml.
This stock solution was diluted with the described solvent-emulsifier-water mixture to the given concentration.
G1. Preventative Control of Leaf Blotch on Wheat Caused by Septoria tritici (Septtr P1)
Leaves of pot-grown wheat seedling were sprayed to run-off with an aqueous suspension of the active compound or their mixture, prepared as described. The plants were allowed to air-dry. The next day the plants were inoculated with an aqueous spore suspension of Septoria tritici. Then the trial plants were immediately transferred to a humid chamber at 18-22° C. and a relative humidity close to 100%. After 4 days the plants were transferred to a chamber with 18-22° C. and a relative humidity close to 70%. After 4 weeks the extent of fungal attack on the leaves was visually assessed as % diseased leaf area.

[2] = tested on: Botritis cinerea; test: G4. Preventative fungicidal control of Botritis cinerea on leaves of green pepper (Botrci P1), green house; format: in vivo; conditions: 300 pm active substance, % diseased leaf area, untreated control 90%
Description: 1) Green House The spray solutions were prepared in several steps: The stock solution were prepared: a mixture of acetone and/or dimethylsulfoxide and the wetting agent/emulsifier Wettol, which is based on ethoxylated alkylphenoles, in a relation (volume) solvent-emulsifier of 99 to 1 was added to 25 mg of the compound to give a total of 5 ml. Water was then added to total volume of 100 ml. This stock solution was diluted with the described solvent-emulsifier-water mixture to the given concentration. G4. Preventative fungicidal control of Botritis cinerea on leaves of green pepper (Botrci P1 Young seedlings of green pepper were grown in pots to the 4 to 5 leaf stage. These plants were sprayed to run-off with an aqueous suspension, containing the concentration of active ingredient or their mixture mentioned in the table below. The next day the plants were inoculated with a aqueous biomalt solution containing the spore suspension of Botritis cinerea. Then the plants were immediately transferred to a humid chamber. After 5 days at 22 to 24° C. and a relative humidity close to 100% the extent of fungal attack on the leaves was visually assessed as % diseased leaf area.

[3] = tested on: Septoria tritici; test: M1. Microtest: activity against leaf blotch on wheat caused by Septoria tritici (Septtr), micro titer plate growth; format: cell-based; conditions: 405 nm, 7 days after inoculation, relative growth vs active compound-free control (100%)
Description: Microtest The active compounds were formulated separately as a stock solution having a concentration of 10000 ppm in dimethyl sulfoxide. M1. Activity Against Leaf Blotch on Wheat Caused by Septoria tritici (Septtr) The stock solutions were mixed according to the ratio, pipetted onto a micro titer plate (MTP) and diluted with water to the stated concentrations. A spore suspension of Septoria tritici in an aqueous biomalt or yeast-bactopeptone-glycerine solution was then added. The plates were placed in a water vapor-saturated chamber at a temperature of 18° C. Using an absorption photometer, the MTPs were measured at 405 nm 7 days after the inoculation. The measured parameters were compared to the growth of the active compound-free control variant (100%) and the fungus-free and active compound-free blank value to determine the relative growth in % of the pathogens in the respective active compounds

Row | Compound | Disease (%) at 300 pm Septtr P1 [1] [%] | Disease (%) at 300 pm Botrci P1 [2] [%] | Growth (%) at 0.002 ppm Septtr [3] [%]
1 | C=CCOC(Cn1cncn1)c1ccc(Oc2ccc(Cl)cc2)cc1Cl (stereo not drawn) | 30 | 30 | –
2 | COC(Cn1cncn1)c1ccc(Oc2ccc(Cl)cc2)cc1Cl (stereo not drawn) | 40 | – | 72
3 | C#CC(Cn1cncn1)(OC)c1ccc(Oc2ccc(Cl)cc2)cc1Cl (stereo not drawn) [I-1] | – | – | 14
4 | C=CC(Cn1cncn1)(OC)c1ccc(Oc2ccc(Cl)cc2)cc1Cl (stereo not drawn) [I-7, 1-[2-[2-chloro-4-(4-chlorophenoxy)phenyl]-2-methoxy-but-3-enyl]-1,2,4-triazole] | 0 | – | –
5 | C=CCOC(C=C)(Cn1cncn1)c1ccc(Oc2ccc(Cl)cc2)cc1Cl (stereo not drawn) [I-8] | 0 | – | –
6 | C=CCOC(C#CC)(Cn1cncn1)c1ccc(Oc2ccc(Cl)cc2)cc1Cl (stereo not drawn) [I-12] | 0 | 0 | –
